Consider 34 compounds from ChEMBL document CHEMBL3044542 (J Agric Food Chem, 2011).

What all share (format): functional
Experiment [1] deals with Nephotettix cincticeps. In words: Insecticidal activity against Nephotettix cincticeps (green rice leafhopper) assessed as lethality at 1 to 10 ppm.
Experiment [2] concerns Laodelphax striatellus. In words: Insecticidal activity against Laodelphax striatella (small brown planthopper) assessed as lethality at 10 to 100 ppm.
In experiment [3] the test system is Nephotettix cincticeps. In words: Insecticidal activity against Nephotettix cincticeps (green rice leafhopper) assessed as lethality at >1000 ppm.
For experiment [4], the system named is Nephotettix cincticeps. In words: Insecticidal activity against Nephotettix cincticeps (green rice leafhopper) assessed as lethality at 100 to 1000 ppm.
The test system of experiment [5] is Laodelphax striatellus. In words: Insecticidal activity against Laodelphax striatella (small brown planthopper) assessed as lethality at 0.1 to 1 ppm.
Experiment [6] deals with Nephotettix cincticeps. Description: Insecticidal activity against Nephotettix cincticeps (green rice leafhopper) assessed as lethality at 0.1 to 1 ppm.
Experiment [7] has as its system Nephotettix cincticeps. Description: Insecticidal activity against Nephotettix cincticeps (green rice leafhopper) assessed as lethality at 10 to 100 ppm.
In experiment [8] the test system is Laodelphax striatellus. Description: Insecticidal activity against Laodelphax striatella (small brown planthopper) assessed as lethality at 100 to 1000 ppm.
For experiment [9], the system named is Laodelphax striatellus. Description: Insecticidal activity against Laodelphax striatella (small brown planthopper) assessed as lethality at 1 to 10 ppm.
Experiment [10] relates to Laodelphax striatellus. Description: Insecticidal activity against Laodelphax striatella (small brown planthopper) assessed as lethality at >1000 ppm.

`O=[N+]([O-])/N=C1\NCCN1CC1CCOC1` (stereo not given): the Activity in experiment [1] and in [2] was 70% throughout.
As to `CN/C(=C\[N+](=O)[O-])CCC1CCOC1` (stereo not given), the Activity in experiment [3] was 70%.
Consider `CC/C(=C\[N+](=O)[O-])N(C)CC1CCOC1` (stereo not given), for which the Activity in [3] is listed as 70%.
In the case of `N/C(=N\[N+](=O)[O-])NCC1CCOC1` (stereo not given), the Activity in [4] was 70%.
As for `CN/C(=C\[N+](=O)[O-])NCC1CCOC1` (stereo not given), the Activity in experiment [5] and in experiment [6] was 70% in each case.
Turning to `CCN/C(=N\[N+](=O)[O-])NCC1CCOC1` (stereo not given), the Activity in experiment [7] and in experiment [8] was 70% each time.
As for `CN(C)/C(=N\[N+](=O)[O-])N(C)CC1CCOC1` (stereo not given), the Activity in experiment [7] and in experiment [2] was 70% throughout.
As to `CN/C(=N\[N+](=O)[O-])N(C)CC1CCOC1` (stereo not given), the Activity in [1] and in experiment [9] was 70% each time.
On to `CN(C(=O)c1ccccc1)/C(=N\[N+](=O)[O-])N(CC1CCOC1)C(=O)c1ccccc1` (stereo not given), for which the Activity in experiment [9] and in [6] was 70% each time.
`CC(=O)N(C)/C(=N\[N+](=O)[O-])N(CC1CCOC1)C(C)=O` (stereo not given): the Activity in [5] and in experiment [6] was 70% each time.
Regarding `CN/C(=N\[N+](=O)[O-])NCC1(C)CCOC1` (stereo not given), the Activity in [10] and in experiment [3] was 70% throughout.
As to `CN/C(=N\[N+](=O)[O-])NCC1CCCOC1` (stereo not given), the Activity in [7] and in experiment [8] was 70% throughout.
For `CCN(CC1CCOC1)/C(=C/[N+](=O)[O-])NC` (stereo not given), the Activity in [1] and in experiment [2] was 70% each time.
For the compound `N#C/N=C1\SCCCN1CC1CCOC1` (stereo not given), the Activity in [7] and in experiment [2] was 70% in each case.
Regarding `CN1COCN(CC2CCOC2)/C1=N/[N+](=O)[O-]` (stereo not given), the Activity in experiment [4] and in experiment [8] was 70% in each case.
Consider `C/C(=N\C#N)N(C)CC1CCOC1` (stereo not given), for which the Activity in experiment [4] and in experiment [8] was 70% in each case.
Take `O=[N+]([O-])/N=C1\NCCN1Cc1ccoc1`: the Activity in experiment [7] and in experiment [2] was 70% in each case.
With `O=[N+]([O-])/N=C1\NCCN1CCC1CCCCO1` (stereo not given), the Activity in experiment [4] and in experiment [8] was 70% in each case.
With `O=[N+]([O-])/N=C1\NCCN1CCC1CCCO1` (stereo not given), the Activity in [4] and in [8] was 70% in each case.
Turning to `O=C(OCCCN1CCN/C1=C\[N+](=O)[O-])c1ccccc1`, the Activity in [4] and in experiment [8] was 70% throughout.
Regarding `COCCCN1CCN/C1=C\[N+](=O)[O-]`, the Activity in experiment [7] and in experiment [8] was 70% each time.
As for `CC(=O)OCCCN1CCN/C1=C\[N+](=O)[O-]`, the Activity in experiment [4] and in [8] was 70% in each case.
In the case of `O=C(OCCN1CCN/C1=C\[N+](=O)[O-])c1ccccc1`, the Activity in experiment [3] and in [8] was 70% each time.
Consider `O=[N+]([O-])/C=C1\NCCN1CCCO`, for which the Activity in [4] and in experiment [8] was 70% in each case.
Consider `O=[N+]([O-])/C=C1\NCCN1CCO`, for which the Activity in experiment [3] and in experiment [8] was 70% in each case.
Regarding `COCCN1CCN/C1=C\[N+](=O)[O-]`, the Activity in experiment [7] and in experiment [8] was 70% throughout.
Regarding `CC(=O)OCCN1CCN/C1=C\[N+](=O)[O-]`, the Activity in experiment [3] and in [8] was 70% throughout.
`CN/C(=N\[N+](=O)[O-])NCC1CCOC1C` (mixture of isomers): the Activity in experiment [10] and in experiment [3] was 70% throughout.
On to `CN/C(=N\[N+](=O)[O-])NCC1COC(C)C1` (mixture of isomers), for which the Activity in experiment [1] and in experiment [2] was 70% in each case.
For `CCC1COCC1CN/C(=N/[N+](=O)[O-])NC` (mixture of isomers), the Activity in experiment [10] and in [3] was 70% throughout.
For `CN/C(=N\[N+](=O)[O-])NCC1CC2CCC1O2` (mixture of isomers), the Activity in [10] and in experiment [3] was 70% throughout.
Turning to `CN/C(=N\[N+](=O)[O-])NCC1COCC1C` (mixture of isomers), the Activity in [1] and in experiment [2] was 70% throughout.
Take `CN/C(=N/CC1CCOC1)N[N+](=O)[O-]` (stereo not given) [DINOTEFURAN]: the Activity in [5] and in [6] was 70% each time.
For the compound `O=[N+]([O-])/N=C1\NCCN1Cc1ccc(Cl)nc1` [IMIDACLOPRID], the Activity in experiment [5] and in experiment [6] was 70% each time.
